The text below walks through data of PMC6877910, “Astrocyte-Targeted Transporter-Utilizing Derivatives of Ferulic Acid Can Have Multifunctional Effects Ameliorating Inflammation and Oxidative Stress in the Brain” (Oxidative Medicine and Cellular Longevity, 2019).

Molecules are shown by their SMILES. “And” between values parts separate entries of the source, which are not always exact repeats. Identical values can stand only once.

By IC50 is commonly meant the concentration needed to halve the response being measured.

For one series, the system named is OATP/OAT. Put plainly: Transporter-mediated cellular uptake into primary astrocytes, secondary mechanism (Eadie-Hofstee). In kind it is in vitro ADME, mouse. The following applies: Eadie-Hofstee analysis, mean ± SD, n = 3. On the procedure: (§1) For the cell uptake experiments, the astrocytes were seeded on 24-well plates with a density of 10 × 10^4 cells/well three days before the experiments as described earlier. Cellular uptake of derivatives 1-3 of FA was studied by incubating the cells at 37°C for 30 min (uptake was linear with all compounds up to 30 min) with compounds at the concentration of 1-200 μM in prewarmed HBSS buffer (250 μL). […]; Agilent Technologies, Santa Clara, CA). The concentrations of each compound in cell lysates were calculated from the standard curve that was prepared by spiking known amounts of compounds to ACN including the selected internal standard and then normalized with protein concentration. The protein concentrations on each plate were determined as a mean of three samples by Bio-Rad Protein Assay, based on the Bradford dye-binding method, using bovine serum albumin (BSA) as a standard protein and measuring the absorbance (595 nm) by a multiplate reader (EnVision, PerkinElmer, Inc., Waltham, MA, USA).
(§2) All the cellular studies were carried out as three biological replicates from the same cell passage. The function of LAT1 was followed between the used cell passages (7-16) with a LAT1 probe substrate, [^14C]-L-leucine, and noticed to be unaltered. All statistical analyses, including Michaelis-Menten, Eadie-Hofstee, and Hanes-Woolf analyses, were performed using GraphPad Prism v. 5.03 software (GraphPad Software, San Diego, CA, USA). Statistical differences between groups were tested using one-way ANOVA, followed by Tukey's multiple comparison test, and presented as the mean ± SD, with significant differences denoted by asterisks (^∗P < 0.05, ^∗∗P < 0.01, and ^∗∗∗P < 0.001).

Series [1] has as its target T1, butyrylcholinesterase (BChE) (Mus musculus, UniProt Q03311).
T1 construct: mouse brain S9 fraction was prepared by homogenizing freshly collected mouse brain; from tissue; host or cells: mouse brain S9 fraction (9 000 x g supernatant)
Kind of series: biochemical. To be noted: mouse brain S9 subcellular fraction, 30 min end point, mean ± SD, n = 3; for IC50: read-out: BuChE IC50 value. In kind it is biochemical. On the procedure: Briefly, mouse brain S9 fraction was prepared by homogenizing freshly collected mouse brain with 50 mM Tris-buffered saline (TBS) (pH 7.4) (1 : 4, w/v), centrifuging the homogenate at 9 000 × g for 20 min at 4°C and collecting the supernatant. The supernatant was then diluted at 1 : 10 with phosphate-buffered saline (100 mM; pH 7.0) and mixed with Ellman's reagent (5,5′-dithiobis-(2-nitrobenzoic acid); DTNB; 1 mM) and studied compounds in DMSO (DMSO concentration was less than 0.5%) on a 96-well plate as 3 parallel assays.

For series [2], the target named is T2, LAT1 (Mus musculus, UniProt Q9Z127).
T2 construct: mouse primary astrocytes, from which we have recently characterized LAT1 expression and function; endogenous in cells; host or cells: mouse primary astrocytes (cortex and hippocampi of 2-day-old wild-type and APP/PS1 mice)
T2 sequence (Q9Z127 whole entry): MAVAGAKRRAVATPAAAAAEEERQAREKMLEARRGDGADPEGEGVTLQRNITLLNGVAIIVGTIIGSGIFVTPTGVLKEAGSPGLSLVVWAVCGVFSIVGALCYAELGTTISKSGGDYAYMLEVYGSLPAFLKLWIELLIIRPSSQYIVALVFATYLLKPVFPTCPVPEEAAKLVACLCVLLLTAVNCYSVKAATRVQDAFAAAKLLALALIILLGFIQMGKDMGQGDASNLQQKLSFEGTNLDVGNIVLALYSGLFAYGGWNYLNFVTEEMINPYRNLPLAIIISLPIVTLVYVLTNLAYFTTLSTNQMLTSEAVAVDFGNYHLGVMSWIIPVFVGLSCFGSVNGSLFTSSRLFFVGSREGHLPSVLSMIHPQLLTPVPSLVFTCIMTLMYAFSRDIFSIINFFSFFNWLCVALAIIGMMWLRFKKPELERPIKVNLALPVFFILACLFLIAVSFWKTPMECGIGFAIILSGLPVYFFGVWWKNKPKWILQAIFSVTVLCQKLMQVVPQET
T2 sequence (P10852 whole entry partner): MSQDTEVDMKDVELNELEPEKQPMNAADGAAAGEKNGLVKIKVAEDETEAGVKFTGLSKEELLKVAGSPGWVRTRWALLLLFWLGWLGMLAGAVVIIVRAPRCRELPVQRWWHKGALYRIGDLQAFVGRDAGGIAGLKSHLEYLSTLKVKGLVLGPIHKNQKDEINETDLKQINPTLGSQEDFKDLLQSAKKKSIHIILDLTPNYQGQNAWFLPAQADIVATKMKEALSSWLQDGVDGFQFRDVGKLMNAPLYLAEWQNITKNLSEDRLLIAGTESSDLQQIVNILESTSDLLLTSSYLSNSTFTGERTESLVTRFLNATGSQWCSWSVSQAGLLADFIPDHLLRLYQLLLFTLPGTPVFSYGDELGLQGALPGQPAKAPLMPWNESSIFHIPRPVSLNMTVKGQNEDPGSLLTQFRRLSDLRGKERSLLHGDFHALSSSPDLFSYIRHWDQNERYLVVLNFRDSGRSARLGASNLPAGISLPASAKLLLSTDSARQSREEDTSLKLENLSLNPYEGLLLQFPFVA
Kind of series: Ability to bind LAT1: inhibition of [14C]-L-leucine uptake in mouse primary astrocytes. To be noted: mean ± SD; for IC50: n = 3-4, read-out: IC50 in astrocytes (LAT1-probe substrate [14C]-L-leucine uptake). In kind it is cell-based. On the procedure: For the transporter binding studies, the astrocytes were seeded on 24-well plates with a density of 10 × 10^4 cells/well three days before the experiments. After removal of the culture medium, the cells were carefully washed with prewarmed HBSS (Hank's balance salt solution) containing choline chloride (125 mM), KCl (4.8 mM), MgSO4 (1.2 mM), KH2PO4 (1.2 mM), CaCl2 (1.3 mM), glucose (5.6 mM), and HEPES (25 mM) adjusted to pH 7.4 with 1 M NaOH. The cells were preincubated with 500 μL of prewarmed HBSS at 37°C for 10 min before the experiments. To study the ability of studied compounds to inhibit the uptake of a known LAT1 substrate, the cells were incubated at 37°C for 5 min with an uptake buffer (HBSS, 250 μL) containing 0.76 μM (0.25 mCi/mL or 9.85 MBq/mL) of [^14C]-L-leucine (PerkinElmer, Inc., Waltham, MA, USA) and 0.1-1000 μM of studied compound (or HBSS as blank). After incubation, the uptake was stopped by adding 500 μL of ice-cold HBSS and the cells were washed two times with ice-cold HBSS. The cells were then lysed with 500 μL of NaOH (0.1 M) for 60 min, and the lysate was mixed with 3.5 mL of Emulsifier safe cocktail (Ultima Gold, PerkinElmer, Inc., Waltham, MA, USA). The radioactivity in the cells was measured by liquid scintillation counting (MicroBeta^2 counter, PerkinElmer, Inc., Waltham, MA, USA). Half of maximum inhibitory concentration (IC50) values were calculated by nonlinear regression analysis (fitting the curve to log (concentration) vs. remaining normalized […]).

A further series concerns the target T3, purified human BACE1 (Homo sapiens, UniProt P56817).
T3 construct: purchased AnaSpec, Inc., Fremont, CA, USA SensoLyte 520 BACE1 Assay kit (catalogue number not given)
Kind of series: BACE1 FRET inhibition assay (SensoLyte 520). In kind it is biochemical. The following applies: 1 and 10 μM; 30 min. The text has this:
A fluorometric assay was used to screen the inhibitory effect of the studied compounds on purified human BACE1 using a fluorescence resonance energy transfer (FRET) peptide technique (SensoLyte© 520 BACE1 Assay kit, AnaSpec, Inc., Fremont, CA, USA) according to the manufacturer's protocol. […] The sequence of the FRET peptide has been derived from the β-secretase cleavage site of β-amyloid precursor protein (APP) with Swedish mutation, which enhances β-secretase to process APP resulting in an early onset of AD. Thus, active β-secretase cleaved FRET substrate into two separate fragments resulting in the release of HiLyte™ Fluor 488 fluorescence that was measured by the EnVision plate reader (EnVision, PerkinElmer, Inc., Waltham, MA, USA) at λex 490 nm and λem 520 nm. […] The results were reported as percentages (%), with control sample representing 100% β-secretase activity.

Series [3] concerns the target T2, LAT1. Kind of series: Transporter-mediated cellular uptake into primary astrocytes, primary mechanism (Eadie-Hofstee). In kind it is in vitro ADME. The following applies: Eadie-Hofstee analysis, mean ± SD, n = 3. As to the method:
as §1, §2

The next series deals with primary astrocytes. Put plainly: Astrocyte cell growth / viability (resazurin). The following applies: for Effect on astrocyte viability at low concentrations: 5-100 μM, 72 h; for Concentrations with significant antiproliferative efficacy on astrocytes: 72 h incubation, 5-400 μM. In kind it is cell-based. On the procedure:
Primary astrocytes were seeded at the density of 10 × 10^3 cells/well onto collagen-coated 96-well plates. The cells were used for the proliferation experiments one day after seeding. Concentrations of 5-400 μM FA or its LAT1-utilizing derivatives 1-3 were added into the growth medium and incubated for 3 days. Each day, the cell viability was determined by resazurin cell proliferation kit (Sigma, St. Louis, MO, USA), which is directly proportional to aerobic respiration and cellular metabolism of cells. The samples were measured fluorometrically by monitoring the increase in fluorescence at λex 560 nm and λem 590 nm (EnVision, PerkinElmer, Inc., Waltham, MA, USA). The cell viability was also followed by visualizing the wells with microscopy. The ability of compounds to inhibit the viability of the cells was expressed as percentages (%) compared to the untreated controls.
(In general: Alamar Blue is a resazurin reagent that responds to reducing activity.)

T3 sequence (P56817 46-501): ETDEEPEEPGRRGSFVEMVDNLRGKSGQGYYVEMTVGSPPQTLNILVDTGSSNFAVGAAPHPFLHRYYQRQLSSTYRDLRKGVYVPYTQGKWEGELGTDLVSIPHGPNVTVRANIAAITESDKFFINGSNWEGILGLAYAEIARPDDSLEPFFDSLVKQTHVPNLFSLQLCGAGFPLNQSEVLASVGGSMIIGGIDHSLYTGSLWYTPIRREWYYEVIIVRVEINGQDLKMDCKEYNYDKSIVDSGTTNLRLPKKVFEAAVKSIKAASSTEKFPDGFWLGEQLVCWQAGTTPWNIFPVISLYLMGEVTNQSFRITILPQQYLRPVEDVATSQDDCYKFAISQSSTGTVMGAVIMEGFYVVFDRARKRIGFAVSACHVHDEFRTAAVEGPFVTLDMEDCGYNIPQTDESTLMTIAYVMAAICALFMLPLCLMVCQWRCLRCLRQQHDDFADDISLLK
T1 sequence (Q03311 30-603): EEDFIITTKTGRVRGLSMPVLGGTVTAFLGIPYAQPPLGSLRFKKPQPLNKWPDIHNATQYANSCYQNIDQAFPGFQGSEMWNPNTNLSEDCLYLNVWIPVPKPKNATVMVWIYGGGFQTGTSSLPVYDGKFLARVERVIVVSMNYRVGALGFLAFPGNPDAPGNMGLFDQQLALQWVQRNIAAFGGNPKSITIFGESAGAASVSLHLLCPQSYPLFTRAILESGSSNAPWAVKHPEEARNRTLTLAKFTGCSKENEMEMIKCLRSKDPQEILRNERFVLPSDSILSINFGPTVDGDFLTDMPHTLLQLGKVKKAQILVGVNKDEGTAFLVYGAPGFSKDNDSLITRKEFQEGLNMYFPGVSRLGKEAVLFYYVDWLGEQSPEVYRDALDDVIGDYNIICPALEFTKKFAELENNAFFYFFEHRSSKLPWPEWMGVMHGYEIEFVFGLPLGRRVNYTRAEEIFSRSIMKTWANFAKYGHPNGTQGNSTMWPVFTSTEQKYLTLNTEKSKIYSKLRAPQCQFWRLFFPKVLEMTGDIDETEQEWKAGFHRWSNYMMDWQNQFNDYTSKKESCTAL

For the compound `COc1cc(/C=C/C(=O)O)ccc1O` [FA, trans-4-hydroxy-3-methoxycinnamic acid, reference compound], in the series with OATP/OAT, the “Secondary transport mechanism (OATP/OAT) K m” value is on record as “Autoactivation” and the “Secondary transport mechanism (OATP/OAT) V max” value is “Autoactivation”. In series [1], the “BuChE IC50 value” is reported as “No inhibition”. For the same compound, at LAT1 [2] (n = 3-4), the “IC50 in astrocytes (LAT1-probe substrate [14C]-L-leucine uptake)” value is listed as “No inhibition”. The same compound returned a BACE1 inhibition on purified human BACE1 of roughly 97%. On LAT1 [3], the “Primary transport mechanism (LAT1) K m” value was “Autoactivation” and the “Primary transport mechanism (LAT1) V max” value is reported as “Autoactivation”. Besides, in the series on primary astrocytes, the “Effect on astrocyte viability at low concentrations” value (from here on “Effect on astrocyte viability”) is “increased the viability” and the “Concentrations with significant antiproliferative efficacy on astrocytes” value is “above 200 μM”.
In the case of `COc1cc(C=CC(=O)NCc2cccc(CC(N)C(=O)O)c2)ccc1O` (centres unmarked) [FA-derivative 1], in the series with OATP/OAT, the “Secondary transport mechanism (OATP/OAT) K m” value amounted to 101.1 ± 19.7 µM and the “Secondary transport mechanism (OATP/OAT) V max” value is 0.033 ± 0.402 nmol/min/mg protein. For the same compound, the IC50 in series [1] is 220.8 ± 1.14 µM. Also, the IC50 on LAT1 [2] was 2.2 µM and 2.15 µM. Besides, the BACE1 inhibition at purified human BACE1 was 78–91%. At LAT1 [3], the “Primary transport mechanism (LAT1) K m” value was 4.1 ± 2.1 µM and the “Primary transport mechanism (LAT1) V max” value was found to be 0.008 ± 0.002 nmol/min/mg protein. In addition, in the series with primary astrocytes, the “Effect on astrocyte viability” value is on record as “increased the viability” and the “Concentrations with significant antiproliferative efficacy on astrocytes” value is given as “above 200 μM”.
As for `COc1cc(C=CC(=O)Nc2cccc(CC(N)C(=O)O)c2)ccc1O` (centres unmarked) [FA-derivative 2], in the series with OATP/OAT, the “Secondary transport mechanism (OATP/OAT) K m” value was 153.8 ± 15.0 µM and the “Secondary transport mechanism (OATP/OAT) V max” value came to 0.172 ± 0.013 nmol/min/mg protein. For the same compound, the “BuChE IC50 value” in series [1] was “No inhibition”. For the same compound, the IC50 on LAT1 [2] came to 8.9 ± 1.25 µM. Moreover, at purified human BACE1, the BACE1 inhibition is listed as 91–97%. Moreover, on LAT1 [3], the “Primary transport mechanism (LAT1) K m” value was found to be 4.2 ± 0.8 µM and the “Primary transport mechanism (LAT1) V max” value is 0.013 ± 0.001 nmol/min/mg protein. Also, in the series on primary astrocytes, the “Effect on astrocyte viability” value is “increased the viability” and the “Concentrations with significant antiproliferative efficacy on astrocytes” value is given as “above 200 μM”.
In the case of `COc1cc(C=CC(=O)Oc2cccc(CC(N)C(=O)O)c2)ccc1O` (centres unmarked) [FA-derivative 3], in the series with OATP/OAT, the “Secondary transport mechanism (OATP/OAT) K m” value is given as “Autoactivation” and the “Secondary transport mechanism (OATP/OAT) V max” value is given as “Autoactivation”. For the same compound, in series [1], the 50% inhibitory concentration (IC50) came to 236.1 ± 1.26 µM. On LAT1 [2], the IC50 is 28.7 ± 1.15 µM. Further, the BACE1 inhibition on purified human BACE1 was 81–91%. On LAT1 [3], the “Primary transport mechanism (LAT1) K m” value was “Autoactivation” and the “Primary transport mechanism (LAT1) V max” value is on record as “Autoactivation”. The “Concentrations with significant antiproliferative efficacy on astrocytes” value in the series with primary astrocytes is listed as “above 200 μM”.
